# Results reported in patent US10766914B2, “DNA alkylating agents” (OBI PHARMA, INC., priority 2015, dated 2020).
# Key:
# C3A = assay: TH2870 sensitivity in liver cancer cells; type: cell-based, human; details: AKR1C3 expression ++++
# SNU-475 = assay: TH2870 sensitivity in liver cancer cells; type: cell-based, human; details: AKR1C3 expression ++++
# LIC-0903 = assay: TH2870 sensitivity in liver cancer cells; type: cell-based, human; details: AKR1C3 expression ++++
# LIXC-003 = assay: TH2870 sensitivity in liver cancer cells; type: cell-based, human; details: AKR1C3 expression ++++
# LIXC-012 = assay: TH2870 sensitivity in liver cancer cells; type: cell-based, human; details: AKR1C3 expression ++++
# LIXC-086 = assay: TH2870 sensitivity in liver cancer cells; type: cell-based, human; details: AKR1C3 expression ++++
# LIXC-011 = assay: TH2870 sensitivity in liver cancer cells; type: cell-based, human; details: AKR1C3 expression ++++
# JHH-7 = assay: TH2870 sensitivity in liver cancer cells; type: cell-based, human
# LIXC-004 = assay: TH2870 sensitivity in liver cancer cells; type: cell-based, human; details: AKR1C3 expression +++
# LIXC-006 = assay: TH2870 sensitivity in liver cancer cells; type: cell-based, human; details: AKR1C3 expression +++
# HuCCT1 = assay: TH2870 sensitivity in liver cancer cells; type: cell-based, human
# Hep 3B2.1-7 = assay: TH2870 sensitivity in liver cancer cells; type: cell-based, human; details: AKR1C3 expression /
# HLF = assay: TH2870 sensitivity in liver cancer cells; type: cell-based, human; details: AKR1C3 expression /
# 22RV1 = assay: TH2870 sensitivity in prostate cancer cell lines; type: cell-based; details: Homo sapiens
# DU145 = assay: TH2870 sensitivity in prostate cancer cell lines; type: cell-based; details: Homo sapiens, DU-145
# PC-3 = assay: TH2870 sensitivity in prostate cancer cell lines; type: cell-based; details: Homo sapiens
# LNCap = assay: TH2870 sensitivity in prostate cancer cell lines; type: cell-based; details: Homo sapiens
# MDA-Pca-2b = assay: TH2870 sensitivity in prostate cancer cell lines; type: cell-based; details: Homo sapiens
# NCI-H660 = assay: TH2870 sensitivity in prostate cancer cell lines; type: cell-based; details: Homo sapiens
# [1] = Example 4-B body weight change, A549 xenograft study; type: in vivo, female nude mice (nu/nu); details: 20 mg/kg ip QD × 5/wk × 2 wks
# Method: (§1) Cells were mixed with Matrigel (50% with exception for 30% in the H460) and 0.2 ml per mouse were subcutaneously implanted to the flank area of the animals. When tumor size reached 100-150 250 mm3, mice were randomized into experimental or vehicle groups with 10 mice/group and treatment was started (Day 1). The tested compounds were formulated in 5% DMSO in D5W. The regimens employed in the examples include IP, QD×5/wk (5 days on, 2 days off) as one cycle, for a total of 2 cycles; IP, once; IP, weekly for total 3 weeks; and IV, weekly for 3 weeks. Tumor growth and body weight were measured twice a week. Tumor volume was calculated as (length×width2)/2. Drug efficacy was assessed as Tumor Growth Inhibition (TGI) and Tumor Growth Delay (TGD). TGI was defined as (1−ΔT/ΔC)×100, where ΔT/ΔC presented the ratio of the change in mean (or median, if variation within the group was relatively large) tumor volume of the treated group and of the control group. TGD was calculated as the extra days for the treated tumor to reach 500 mm3 or 1000 mm3 as compared to the control group. Animals were culled when individual tumor size reached over 2000 mm3 or mean tumor volume exceeded 1000 mm3 in the group. Data are expressed as the mean±SEM. One-way analysis of variance with Dunnett post comparison test (GraphPad Prism 4) or two-tailed student's t-test were used for analysis. A P level <0.05 was considered statistically significant.
# Antitumor effects of compounds provided herein were determined on A 549 non-small cell lung xenograft model in comparison with a chemotherapy agent, thiotepa. The dosing was as follows. Daily IP dosing: 5 doses then 2 days off then 5 more doses starting at 110 mm^3 tumors on day 1 (10 animals per group average tumor volume). The antitumor effects and the safety of administration are graphically illustrated below.
# [2] = test system: A375 melanoma human tumor xenograft; assay: Example 4-C antitumor efficacy, ectopic A375 melanoma xenograft model; type: in vivo, female nude mice (nu/nu); details: qd × 5 × 2, ip
# H460 NSCLC xenograft = assay: Example 4-I antitumor efficacy, ectopic H460 NSCLC xenograft model; type: in vivo, female nude mice (nu/nu); details: iv, Q7D × 3; for TGD500, Days (vs. vehicle) / TGD1000, Days (vs. vehicle): H460; for TGI: H460, 250 mm3 tumors on day 1
# Text: Specific pathogen-free homozygous female nude mice (nu/nu, Charles River Laboratories) were used. Mice were given food and water ad libitum and housed in microisolator cages. Four to six week old animals were identified by microchips (Locus Technology, Manchester, Md., USA) at the time of the experiments. All animal studies were approved by the Institutional Animal Care and Use Committee at Threshold Pharmaceuticals, Inc.
# All cell lines were from the American Type Culture Collection (ATCC, Rockville, Md., USA).
# as §1
# (§2) The compound TH-2870 was tested in a H460 model. The compound was dosed follows. 1.5, 5 or 15 mg/kg, IV, weekly for 3 weeks at 250 mm^3 tumors on day 1 (10 animals per group average tumor volume), comparing with docetaxel. The antitumor effects and the safety of administration are graphically illustrated below.
# [3] = Example 4-I body weight change, H460 xenograft study; type: in vivo, female nude mice (nu/nu); details: iv, Q7D × 3
# Method: as §1, §2
# in vivo = details: mouse, ip, 20 mg/kg
# Method: The pharmacokinetics of TH2870 were determined in Mouse/Nu-Foxn 1^nu NU/NU mice with A549 (non small cell lung), A375 (melanoma) and 786-O (renal cell) human tumor xenograft models following a single intraperitoneal dose of 20 mg/kg.
# [4] = Homo sapiens, read-out: RelIC50
compound,measurement,setting,value
CC(OP(=O)(N1CC1)N1CC1)c1ccc([N+](=O)[O-])c(Oc2cccc(C(=O)N(C)C)c2)c1 (stereo not shown) [Compound 2870],Max Inhibition %,C3A,98.1%
same,IC50,C3A; [4],7.1 nM
same,Max Inhibition %,SNU-475,100.4%
same,IC50,SNU-475; [4],8 nM
same,Max Inhibition %,LIC-0903,96.3%
same,IC50,LIC-0903; [4],81.9 nM
same,Max Inhibition %,LIXC-003,44.6%
same,IC50,LIXC-003; [4],5.4 nM
same,Max Inhibition %,LIXC-012,87.1%
same,Max Inhibition %,LIXC-086,92.8%
same,IC50,LIXC-086; [4],41 nM
same,Max Inhibition %,LIXC-011,97.4%
same,IC50,LIXC-011; [4],40.8 nM
same,Max Inhibition %,JHH-7; AKR1C3 expression +++,69.8%
same,IC50,"JHH-7; Homo sapiens, JHH7, AKR1C3 expression +++, read-out: RelIC50",107 nM
same,Max Inhibition %,LIXC-004,83.6%
same,IC50,LIXC-004; [4],31.3 nM
same,Max Inhibition %,LIXC-006,71.7%
same,IC50,LIXC-006; [4],116 nM
same,Max Inhibition %,HuCCT1; AKR1C3 expression +,66.7%
same,IC50,"HuCCT1; Homo sapiens, HuCCT-1, AKR1C3 expression +, read-out: RelIC50",125 nM
same,Max Inhibition %,Hep 3B2.1-7,8.1%
same,IC50,Hep 3B2.1-7; [4],> 1000 nM
same,Max Inhibition %,HLF,22.5%
same,IC50,HLF; [4],> 1000 nM
same,IC50,22RV1,1.9 nM
same,IC50,DU145,42.9 nM
same,IC50,PC-3,161 nM
same,IC50,LNCap,162 nM
same,IC50,MDA-Pca-2b,> 300 nM
same,IC50,NCI-H660,> 300 nM
same,Max. BW loss %,[1],1.6%
same,TGD 500,[2]; 20 mpk,24 days
same,TGD 1000,[2]; 20 mpk,>18 days
same,inhibition in vivo at 20 mg/kg,"[2]; Mus musculus, A-375, 20 mpk, read-out: TGI",98%
same,"TGD500, Days (vs. vehicle)",H460 NSCLC xenograft; 1.5 mg/kg,18 days
same,"TGD1000, Days (vs. vehicle)",H460 NSCLC xenograft; 1.5 mg/kg,18 days
same,TGI,H460 NSCLC xenograft; 1.5 mg/kg,100.0%
same,"TGD500, Days (vs. vehicle)",H460 NSCLC xenograft; 5 mg/kg,36 days
same,"TGD1000, Days (vs. vehicle)",H460 NSCLC xenograft; 5 mg/kg,38 days
same,TGI,H460 NSCLC xenograft; 5 mg/kg,121.3%
same,"TGD500, Days (vs. vehicle)",H460 NSCLC xenograft; 15 mg/kg,49 days
same,"TGD1000, Days (vs. vehicle)",H460 NSCLC xenograft; 15 mg/kg,50 days
same,TGI,H460 NSCLC xenograft; 15 mg/kg,121.6%
same,Max. BW loss %,[3]; 1.5 mg/kg,7.6%
same,Max. BW loss %,[3]; 5 mg/kg,7.6%
same,Max. BW loss %,[3]; 15 mg/kg,5.8%
same,Kp,in vivo; Nu-Foxn1nu NU/NU,0.0079 to 0.326
same,Tmax,in vivo; Nu-Foxn1nu NU/NU,5 min
same,AUC,"in vivo; Nu-Foxn 1nu NU/NU, AUC",1570 ng·h/mL
same,Cmax,"in vivo; Nu-Foxn 1nu NU/NU, Cmax",5010 ng/mL
same,half-life,"in vivo; Nu-Foxn 1nu NU/NU, Half-Life",11.3 min
